According to US7816323B2, “Methods of using corticotropin-releasing factor for the use of the treatment of cancer” (priority 2008, dated 2010):

How the values were obtained:
[1] = tested on: human glioblastoma cell line U87 Flue; experiment: Brain tumor-bearing SCID mice (U87 Flue glioblastoma), 80-day survival and tumor progression study
From the text: The U87 Flue cell line was created by stably transducing U87 cells with a lentiviral construct containing the luc gene.

[2] = tested on: malignant brain tumor; experiment: Clinical study of CRF in patients with malignant brain tumor (tumor size by MRI, survival); format: in vivo, human
Method: Patients with malignant brain tumor were treated with 2 mg/day (1 mg dose, twice daily) of either human CRF subcutaneously. […] Additionally, of the 30 patients who had received treatment for at least 6 months, 10 experienced a decrease in tumor size.

[3] = tested on: peritumoral edema; details: patients with peritumoral edema; cited from earlier work
[4] = high dose of CRF, 80-day study period

With `O=NN(CCCl)C(=O)NCCCl` [BiCNU, reference compound] the “brain tumor growth / response to treatment (photon emission)” value ([1]; chemotherapeutic agents, TMZ: all mice but one) was “continued to grow”.
With “CRF: endogenous 41 amino acid peptide, the major hypothalamic hormone responsible for stimulation of the pituitary-adrenal axis” the “patients exhibiting a reduction in tumor size of around 90%” value ([2]; FIG. 2 patients, 2 mg/day s.c.) was “two”, the “survival of some patients after CRF treatment” value ([2]; FIGS. 1 and 2) was 1-2 years and the “survival of the overwhelming majority of patients” value ([2]; FIGS. 1 and 2, projected survival 3-6 months) was “live well beyond the projected 3-6 months”. The “metastatic patients exhibiting survival beyond the projected 3-6 months” value ([2]; of the 3 metastatic patients in FIG. 3) was 3 patients, the “metastatic patients showing a reduction in tumor size at the last timepoint measured” value ([2]; of the 3 metastatic patients in FIG. 3, 2 mg/day s.c.) was 2 patients and the “patients exhibiting a reduction in tumor size at the last time point measured” value ([2]; of the 10 patients in FIG. 2, 2 mg/day s.c.) was 8 patients. For the same compound, the “patients exhibiting a maintenance in tumor size” value ([2]; of the 20 patients in FIG. 1, 2 mg/day s.c.) was 5 patients, the “patients exhibiting a reduction in tumor size” value ([2]; of the 20 patients in FIG. 1, 2 mg/day s.c. (1 mg twice daily)) was 6 patients and the “patients exhibiting a reduction in tumor size by over 50%” value ([2]; of the 20 patients in FIG. 1, after 9 months of treatment, 2 mg/day s.c.) was 3 patients. The “patients experiencing a decrease in tumor size” value ([2]; of the 30 patients treated for at least 6 months) was 10 patients, the “survival over the 80-day study period” value ([1]; high dose of CRF, 100 μg/kg s.c. twice daily, all mice) was “survived the entire 80-day study period” and the “brain tumor progression (luminescence imaging)” value [1, 4] was “did not progress during the 80-day study period”. For the same compound, the “health appearance of the mice during the study” value [1, 4] was “appeared healthy throughout”, the “brain tumor progression (luminescence imaging)” value ([1]; low dose of CRF) was “did not progress or progressed more slowly” and the mean survival time ([1]; low dose of CRF) was “between mice, that were administered a high dose of CRF, and mice that had received no treatment or were administered dexamethasone”. For the same compound, the “mice still alive at the end of the 80-day study period” value ([1]; low dose of CRF) was 60%.
For `Cn1nnc2c(C(N)=O)ncn2c1=O` [TMZ, reference compound], the “mice still alive at the end of the 80-day study period” value ([1]; TMZ-treated mice) was 40%.
For corticorelin acetate, the exposure to dexamethasone [3] is listed as “reduced exposure to dexamethasone” and the steroid-related side effects [3] is listed as “improvement in steroid-related side effects”.
